pIC50: −log10 of the molar value. Where two headings read alike, the source gives them in different places.
How the values were obtained:
[1] = tested on: phospho-ERK in MIA PaCa2 or H358 cells; assay: Phospho-ERK assay (AlphaLisa); type: cell-based; conditions: MIA PaCa2 or H358 cells, compound incubated 1.5 hours, read-out: IC50 (p-ERK)
SHP2 (full length) = target: T1, SHP2 (full length) (Homo sapiens, UniProt Q06124); assay: Phosphatase assay (PTPase assay) with DiFMUP substrate; type: biochemical; conditions: SHP2 activated with SHP2 activating peptide; DiFMUP 80 μM, 2 hours; fluorescence; read-out: IC50 (PTPase aS say)
T1 construct: SHP2 (full length, diluted to 100 pM final concentration in reaction buffer, BPS bioscience, US); purchased BPS bioscience, US
T1 sequence (Q06124 1-593): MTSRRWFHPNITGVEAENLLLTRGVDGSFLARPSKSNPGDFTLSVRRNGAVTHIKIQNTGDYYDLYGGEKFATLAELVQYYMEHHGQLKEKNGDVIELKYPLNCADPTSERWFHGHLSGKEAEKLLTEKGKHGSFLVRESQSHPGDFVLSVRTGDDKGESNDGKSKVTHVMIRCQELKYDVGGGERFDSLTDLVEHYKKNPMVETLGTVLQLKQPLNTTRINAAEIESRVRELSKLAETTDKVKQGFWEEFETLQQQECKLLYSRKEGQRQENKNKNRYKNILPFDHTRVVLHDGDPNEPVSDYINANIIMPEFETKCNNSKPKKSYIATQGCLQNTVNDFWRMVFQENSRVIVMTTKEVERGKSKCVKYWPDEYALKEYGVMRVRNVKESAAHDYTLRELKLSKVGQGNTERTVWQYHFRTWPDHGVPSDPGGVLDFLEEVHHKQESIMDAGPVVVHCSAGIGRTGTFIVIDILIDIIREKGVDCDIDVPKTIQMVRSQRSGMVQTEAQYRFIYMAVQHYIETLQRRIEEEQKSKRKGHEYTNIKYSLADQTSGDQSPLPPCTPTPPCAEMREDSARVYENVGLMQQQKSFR

Compound	pIC50 ([1]; 1.5 h)	pIC50 (SHP2 (full length))	pIC50 [1]
C[C@@H]1OCC2(CCN(c3cnc(Sc4ccc5ncn(CC(O)CO)c(=O)c5c4Cl)cn3)CC2)[C@@H]1N (stereo partly drawn) [Example 122, 6-((5-((3S,4S)-4-amino-3-methyl-2-oxa-8-azaspiro[4,5]decan-8-yl)pyrazin-2-yl)thio)-5-chloro-3-(2,3-dihydroxypropyl)quinazolin-4(3H)-one]		> 8.52	> 7.35
C[C@@H]1OCC2(CCN(c3cnc(Sc4ccc5c(c4Cl)S(=O)(=O)N(Cc4ccccc4)C=N5)cn3)CC2)[C@@H]1N [Example 124, 7-((5-((3S,4S)-4-amino-3-methyl-2-oxa-8-azaspiro[4,5]decan-8-yl)pyrazin-2-yl)thio)-2-benzyl-8-chloro-2H-benzo[e][1,2,4]thiadiazine 1,1-dioxide]	> 7.35	> 8.52	
C[C@@H]1OCC2(CCN(c3cnc(Sc4ccc5nc(Oc6ccccc6)[nH]c5c4Cl)cn3)CC2)[C@@H]1N [Example 125]		> 8.52	> 7.35
C[C@@H]1OCC2(CCN(c3cnc(Sc4ccc5nc(OC6CCOC6)[nH]c5c4Cl)cn3)CC2)[C@@H]1N (stereo partly drawn) [Example 126, (3S,4S)-8-(5-((7-chloro-2-((tetrahydrofuran-3-yl)oxy)-1H-benzo[d]imidazol-6-yl)thio)pyrazin-2-yl)-3-methyl-2-oxa-8-azaspiro[4,5]decan-4-amine]	5.82 to 7.35	7.00 to 8.52	
COCCOc1nc2ccc(Sc3cnc(N4CCC5(CC4)CO[C@@H](C)[C@H]5N)cn3)c(Cl)c2[nH]1 [Example 127]	> 7.35	> 8.52	
C[C@@H]1OCC2(CCN(c3cnc(Sc4ccc5nc(Oc6cccnc6)[nH]c5c4Cl)cn3)CC2)[C@@H]1N [Example 128]	> 7.35	> 8.52	
C[C@@H]1OCC2(CCN(c3cnc(Sc4ccc5nc(OC6CCOC6)n(C)c5c4Cl)cn3)CC2)[C@@H]1N (stereo partly drawn) [Example 129, (3S,4S)-8-(5-((7-chloro-1-methyl-2-((tetrahydrofuran-3-yl)oxy)-1H-benzo[d]imidazol-6-yl)thio)pyrazin-2-yl)-3-methyl-2-oxa-8-azaspiro[4.5]decan-4-amine]	> 7.35	> 8.52	
C[C@@H]1OCC2(CCN(c3cnc(Sc4ccc5c(nc(OC6CCOC6)n5C)c4Cl)cn3)CC2)[C@@H]1N (stereo partly drawn) [Example 130]	> 7.35	> 8.52	
COCCn1cnc2ccc(Sc3nc(CO)c(N4CCC5(CC4)CO[C@@H](C)[C@H]5N)nc3C)c(Cl)c2c1=O [Example 131]		7.00 to 8.52	5.82 to 7.35
C[C@@H]1OCC2(CCN(c3cnc(Sc4ccc5c(c4Cl)C(=O)N(Cc4ccccc4)C5)cn3)CC2)[C@@H]1N [Example 133, 6-((5-((3S,4S)-4-amino-3-methyl-2-oxa-8-azaspiro[4,5]decan-8-yl)-pyrazin-2-yl)thio)-2-benzyl-7-chloroisoindolin-1-one]	5.82 to 7.35	7.00 to 8.52	
COc1cccc(Cc2nc3ccc(Sc4cnc(N5CCC6(CC5)CO[C@@H](C)[C@H]6N)cn4)c(Cl)c3[nH]2)c1 [Example 135]	< 5.82	< 7.00	
C[C@@H]1OCC2(CCN(c3cnc(Sc4ccc5nc(Cc6cnccn6)[nH]c5c4Cl)cn3)CC2)[C@@H]1N [Example 136, (3S,4S)-8-(5-((7-chloro-2-(pyrazin-2-ylmethyl)-1H-benzo[d]imidazol-6-yl)thio)pyrazin-2-yl)-3-methyl-2-oxa-8-azaspiro[4.5]decan-4-amine]	> 7.35	> 8.52	
C[C@@H]1OCC2(CCN(c3cnc(Sc4ccc5nc(Cc6cccnc6)[nH]c5c4Cl)cn3)CC2)[C@@H]1N [Example 137, (3S,4S)-8-(5-((7-chloro-2-(pyridin-3-ylmethyl)-1H-benzo[d]imidazol-6-yl)thio)pyrazin-2-yl)-3-methyl-2-oxa-8-azaspiro[4.5]decan-4-amine]	5.82 to 7.35	7.00 to 8.52	
COCCn1cnc2ccc(Sc3ncc(N4CCC5(CC4)CO[C@@H](C)[C@H]5N)nc3N)c(Cl)c2c1=O [Example 143, 6-((3-amino-5-((3S,4S)-4-amino-3-methyl-2-oxa-8-azaspiro[4.5]decan 8-yl)pyrazin-2-yl)thio)-5-chloro-3-(2-methoxyethyl)quinazolin-4(3H)-one]	> 7.35	> 8.52	

Now from value to molecule, other results behind:

pIC50 ([1]; 1.5 h)	pIC50 (SHP2 (full length))	Compound	pIC50 [1]
> 7.35	> 8.52	C[C@@H]1OCC2(CCN(c3cnc(Sc4ccc5ncn(Cc6ccoc6)c(=O)c5c4Cl)cn3)CC2)[C@@H]1N [Example 119]	
> 7.35	> 8.52	COC(C)Cn1cnc2ccc(Sc3cnc(N4CCC5(CC4)CO[C@@H](C)[C@H]5N)cn3)c(Cl)c2c1=O (stereo partly drawn) [Example 120]	
> 7.35	> 8.52	C[C@@H]1OCC2(CCN(c3cnc(Sc4ccc5ncn(CC6CCC(=O)CC6)c(=O)c5c4Cl)cn3)CC2)[C@@H]1N [Example 121]	
> 7.35	> 8.52	C[C@@H]1OCC2(CCN(c3cnc(Sc4ccc5ncn(CCN(C)S(C)(=O)=O)c(=O)c5c4Cl)cn3)CC2)[C@@H]1N [Example 123, N-(2-(6-((5-((3S,4S)-4-amino-3-methyl-2-oxa-8-azaspiro[4,5]decan-8-yl)pyrazin-2-yl)thio)-5-chloro-4-oxoquinazolin-3(4H)-yl]ethyl)-N-methylmethanesulfonamide]	
> 7.35	> 8.52	C[C@@H]1OCC2(CCN(c3cnc(Sc4ccc5c(=O)n(Cc6ccccc6)cnc5c4Cl)cn3)CC2)[C@@H]1N [Example 132]	
5.82 to 7.35	7.00 to 8.52	COCCn1cnc2ccc(Sc3ncc(N4CCC5(CC4)Cc4ncccc4[C@H]5N)nc3N)c(Cl)c2c1=O [Example 134]	
> 7.35	> 8.52	N[C@@H]1c2cccnc2CC12CCN(c1cnc(Sc3ccc4ncn(Cc5ccoc5)c(=O)c4c3Cl)cn1)CC2 [Example 138]	
5.82 to 7.35	7.00 to 8.52	C[C@@H]1OCC2(CCN(c3cnc(Sc4ccc5ncn(CC(C)(C)F)c(=O)c5c4Cl)cn3)CC2)[C@@H]1N [Example 139, 6-((5-((3S,4S)-4-amino-3-methyl-2-oxa-8-azaspiro[4.5]decan-8-yl)pyrazin-2-yl)thio)-5-chloro-3-(2-fluoro-2-methylpropyl)quinazolin-4(3H)-one]	
> 7.35	> 8.52	N[C@@H]1c2cccnc2CC12CCN(c1cnc(Sc3ccc4ncn(CC5(F)COC5)c(=O)c4c3Cl)cn1)CC2 [Example 140, (S)-6-((5-(5-amino-5,7-dihydrospiro[yclopenta[b]pyridine-6,4′-piperidin]-1′-yl)pyrazin-2-yl)thio)-5-chloro-3-((3-fluorooxetan-3-yl)methyl)quinazolin-4(3H)-one]	
> 7.35	> 8.52	N[C@@H]1c2cccnc2CC12CCN(c1cnc(Sc3ccc4ncn(Cc5ccncn5)c(=O)c4c3Cl)cn1)CC2 [Example 141, (S)-6-((5-(5-amino-5,7-dihydrospiro[yclopenta[b]pyridine-6,4′-piperidin]-1′-yl)pyrazin-2-yl)thio)-5-chloro-3-(pyrimidin-4-ylmethyl)quinazolin-4(3H)-one]	
> 7.35	> 8.52	COC(C)Cn1cnc2ccc(Sc3cnc(N4CCC5(CC4)Cc4ncccc4[C@H]5N)cn3)c(Cl)c2c1=O (stereo partly drawn) [Example 142, 6-((5-((S)-5-amino-5,7-dihydrospiro[yclopenta[b]pyridine-6,4′-piperidin]-1′-yl)pyrazin-2-yl)thio)-5-chloro-3-(2-methoxypropyl)quinazolin-4(3H)-one]	
> 7.35	> 8.52	COCCn1cnc2ccc(Sc3cnc(N4CCC5(CC4)Cc4ncsc4[C@H]5N)cn3)c(Cl)c2c1=O [Example 144, 6-[5-[(6S)-6-aminospiro[4,6-dihydrocyclopenta[d]thiazole-5,4′-piperidin]-1′-yl]pyrazin-2-yl]sulfanyl-5-chloro-3-(2-methoxyethyl)quinazolin-4-one]	
5.82 to 7.35	7.00 to 8.52	CC(C)(O)Cn1cnc2ccc(Sc3cnc(N4CCC5(CC4)Cc4ncsc4[C@@H]5N)cn3)c(Cl)c2c1=O [Example 146]	
> 7.35	> 8.52	CC(C)(O)Cn1cnc2ccc(Sc3cnc(N4CCC5(CC4)Cc4ncsc4[C@H]5N)cn3)c(Cl)c2c1=O [Example 147, 6-[5-[(6S)-6-aminospiro[4,6-dihydrocyclopenta[d]thiazole-5,4′piperidin]1′-yl]pyrazin-2-yl]sulfanyl-5-chloro-3-(2-hydroxy-2-methyl-propyl)quinazolin-4-one]	
5.82 to 7.35	7.00 to 8.52	N[C@H]1c2scnc2CC12CCN(c1cnc(Sc3ccc4ncn(CC5CCOCC5)c(=O)c4c3Cl)cn1)CC2 [Example 148, 6-[5-[(6R)-6-aminospiro[4,6-dihydrocyclopenta[d]thiazole-5,4′piperidin]1′-yl]-pyrazin-2-yl]sulfanyl-5-chloro-3-(tetrahydropyran-4-ylmethyl)quinazolin-4-one]	
> 7.35	> 8.52	N[C@@H]1c2scnc2CC12CCN(c1cnc(Sc3ccc4ncn(CC5CCOCC5)c(=O)c4c3Cl)cn1)CC2 [Example 149]	

Source: patent US12029739B2, “SHP2 inhibitor and use thereof” (KANAPH THERAPEUTICS INC., priority 2021, dated 2024)
